Source: US20220088127A1, “TARGETING THE BAG FAMILY FOR THE TREATMENT OF NEURODEGENERATIVE DISEASE” (Temple University - of the Commonwealth System of Higher …, priority 2019, published 2022)
Peptide text beside a SMILES is read from it. * marks the point of attachment. Cbz = O=C(OCc1ccccc1)*

System: BAG3
Experiment: BAG3 protein level by Western blot
Assay type: cell-based, rat
Procedure: Dissociated cell cultures of hippocampal and cortical neurons were prepared using dissected E18 prenatal rat embryonic brains. After digestion in 0.25% trypsin solution, neurons were plated on tissue culture plates and slides pre-coated with poly-D-lysine (Sigma, St. Louis, Mo.) and laminin (Invitrogen 23017, USA). Cells were maintained 14 days prior to treatments. Neurons were transduced with Ad-Null (Vector Biolabs, Malvern, Pa.), Ad-Tat (made in-house), Ad-siBAG3 (Vector Biolabs, Malvern, Pa.) and Ad-BAG3 (Vector Biolabs, Malvern, Pa.) with MOI 1 to 4 or recombinant Tat protein (50 ng/ml, full length, 101 amino acids, Immunodiagnostics, MA). Tat bioactivity was verified by the LTR-luciferase assay. MG132 (5 μM) and Bafilomycin A 1 (50 nM, Sigma) were applied for 4 h prior to lysis to block proteasome and lysosomal autophagy, respectively.
Neuronal and mouse brain tissue lysates were prepared using RIPA lysis buffer (whole cell extract), Tris-Triton (soluble fraction) or 2% SDS in PBS (insoluble fraction), all containing protease inhibitor cocktail (Sigma-Aldrich, St. Louis, Mo.). Protein concentration was measured using Bio-Rad protein assay reagent (Bio-Rad, Hercules, Calif.). SDS-polyacrylamide gels, 10-12%, and nitrocellulose membranes (LI-COR, Inc., Lincoln, Nebr.) were used for electrophoretic protein separation and transfer, respectively. […]

Structure (SMILES) | BAG3 levels in Tat-expressing neurons under lysosomal inhibition (Bafilomycin A1) | BAG3 levels in Tat-expressing neurons under proteasome inhibition (MG132 for 4 h on day 3 post-transduction)
CO/C1=C\C(C)=C\[C@@H](C)[C@@H](O)[C@@H](C)C/C(C)=C/C=C/[C@H](OC)[C@@H]([C@@H](C)[C@@H](O)[C@H](C)[C@@]2(O)C[C@@H](O)[C@H](C)[C@@H](C(C)C)O2)OC1=O [Baf A1, Bafilomycin A1] | no significant changes | 
CC(C)C[C@@H](C=O)NC(=O)[C@H](CC(C)C)NC(=O)[C@H](CC(C)C)NC(=O)OCc1ccccc1 [MG132] (Cbz-Leu-Leu-Leu-aldehyde) |  | not altered
